Results on 36 compounds are retold here after patent US20240024266A1, “Therapeutic Agent or Prophylactic Agent for COVID-19” (priority 2020, published 2024).

The inhibition is the drop in the measured response relative to a control, in per cent.

The subject of experiment [1] is SARS-CoV-2. Nature of the experiment: Inhibitory effect of ATRA on SARS-CoV-2 proliferation (nucleocapsid Western blotting and real-time PCR). The settings on record: MOI 0.01, 24 hours. In kind it is cell-based. As to the method:
In this Example, the inhibitory effect of SARS-CoV-2 proliferation by ATRA, a therapeutic agent for promyelocytic leukemia known to have inhibitory activity against Pin1. ATRA was added to VeroE6/TMPRSS2 cells to the final concentrations of 0, 0.5, 1, 5, 10, 20, and 30 μM, to which SARS-CoV-2 was infected at multiplicity of infection (MOI) of 0.01 after 2 hours, followed by recovering cell lysate after 24 hours and then detecting SARS-CoV-2 nucleocapsid, Pin1 and actin as an internal standard in the cells by Western blotting. SARS-CoV-2 proliferation was evaluated on the basis of the expression level of SARS-CoV-2 nucleocapsid in the cells.
For orientation: In western blotting, separated proteins are transferred to a membrane and probed.

The test system of experiment [2] is SARS-CoV-2. Nature of the experiment: Confirmation test of suppressing effect against SARS-CoV-2 proliferation (nucleocapsid Western blotting, VeroE6/TMPRSS2 cells). In kind it is cell-based. To be noted: 20 μM Pin1 inhibitor, VeroE6/TMPRSS2 cells, MOI 10, cell lysate 8 hours after infection, nucleocapsid band area vs no inhibitor; for inhibition at 20 µM: Severe acute respiratory syndrome coronavirus 2, VeroE6/TMPRSS2, 8 h, read-out: Inhibition Rate.

Experiment [3] has as its system SARS-CoV-2. In kind it is cell-based. To be noted: MOI 0.01, 24 hours after infection, real-time PCR.
The test system of experiment [4] is SARS-CoV-2. Briefly: Suppressing effect against SARS-CoV-2 proliferation at 5 or 10 μM (nucleocapsid Western blotting). It is filed as cell-based. The settings on record: 5 μM, MOI 10, cell lysate 8 hours after infection.
Experiment [5] concerns SARS-CoV-2. In kind it is cell-based. To be noted: MOI 0.01 to 0.02, 24 hours.
In experiment [6] the test system is feline coronavirus (FCoV). To be noted: cited from earlier work.

Read-outs that look alike come from different tables or passages of the source.

`CC1=C(/C=C/C(C)=C/C=C/C(C)=C/C(=O)O)C(C)(C)CCC1` [ATRA]: the “proliferation of SARS-CoV-2” value with SARS-CoV-2 [1] (5 μM or more) is “suppressed”; in the experiment on SARS-CoV-2 [1] (10 μM or more) it was “substantially suppressed”.

For `O=C(Nc1ccc(OCc2ccccc2)cc1C(=O)O)c1ccc2ccccc2c1` [H-77], the “Inhibition Rate” value with SARS-CoV-2 [2] turned out to be 96%. In addition, the “proliferation of SARS-CoV-2 (SARS-CoV-2 RNA level in supernatant)” value is “suppressed” in the experiment on SARS-CoV-2 [3] (5 μM) and “substantially suppressed” in the experiment on SARS-CoV-2 [3] (7.5 μM). Also, the “inhibition rate of SARS-CoV-2 nucleocapsid (Western blotting)” value (from here on “inhibition rate … (Western blotting)”) with SARS-CoV-2 [4] is given as “high inhibition rate”. The SARS-CoV-2 proliferation result is “suppressed” in the experiment with SARS-CoV-2 [5] (10 μM added 2 hours before the infection); “suppressed” in the experiment on SARS-CoV-2 [5] (10 μM added after the infection (2 hours, 6 hours)); “suppressed” in the experiment on SARS-CoV-2 [5] (10 μM added at the time of the infection). Also, the SARS-CoV-2 detection entry with SARS-CoV-2 [5] (10 μM added 6 hours after the infection) is reported as “slightly detected”.

`O=C(Cn1c2ccccc2c2ccccc21)Nc1ccc(OCc2ccc3ccccc3c2)cc1C(=O)O` [H-537]: in the experiment with SARS-CoV-2 [2], the inhibition at 20 µM was determined as 96%. Moreover, in the experiment with SARS-CoV-2 [4], the “inhibition rate … (Western blotting)” value is “high inhibition rate”.

Turning to `O=C(O)c1cc(NC(=O)c2ccc3ccccc3n2)cc(NC(=O)n2c3ccccc3c3ccccc32)c1` [H-688], the inhibition at 20 µM with SARS-CoV-2 [2] was 98%. Moreover, the “inhibition rate … (Western blotting)” value in the experiment with SARS-CoV-2 [4] is on record as “high inhibition rate”.

`Nc1cc(NC(=O)N(c2ccccc2)c2ccccc2)cc(C(=O)O)c1` [H-727]: the inhibition at 20 µM in the experiment on SARS-CoV-2 [2] was found to be 50%.

Regarding `COC(=O)/C(=C/c1ccc2ccccc2c1)CC(=O)N1CCCc2ccccc21` [H-739], in the experiment on SARS-CoV-2 [2], the inhibition at 20 µM stood at 51%.

With `O=C(O)/C(=C/c1ccc2ccccc2c1)CC(=O)N1CCc2ccccc2C1` [H-742], in the experiment with SARS-CoV-2 [2], the inhibition at 20 µM was 57%.

Turning to `O=C(O)/C(=C/c1ccc2ccccc2c1)CC(=O)N1CCCc2ccccc21` [H-743], in the experiment on SARS-CoV-2 [2], the inhibition at 20 µM worked out at 59%.

`Nc1cc(NC(=O)C2c3ccccc3-c3ccccc32)cc(C(=O)OCc2ccccc2)c1` [H-755-2]: the “Inhibition Rate” value in the experiment on SARS-CoV-2 [2] was determined as 75%.

With `Nc1cc(NC(=O)C2c3ccccc3-c3ccccc32)cc(C(=O)OCc2ccccc2)c1` [H-755], the inhibition at 20 µM in the experiment on SARS-CoV-2 [2] stood at 78%.

As for `COC(=O)c1cc(NC(=O)COc2ccccn2)cc(NC(=O)n2c3ccccc3c3ccccc32)c1` [H-762], the inhibition at 20 µM with SARS-CoV-2 [2] turned out to be 83%.

Turning to `O=C(COc1ccccn1)Nc1cc(NC(=O)n2c3ccccc3c3ccccc32)cc(C(=O)O)c1` [H-763], the inhibition at 20 µM in the experiment on SARS-CoV-2 [2] was found to be 97%.

Take `O=C(Nc1ccc(OCc2ccc3ccccc3c2)cc1C(=O)O)c1ccc2c(c1)OCCO2` [H-787]: in the experiment on SARS-CoV-2 [2], the inhibition at 20 µM amounted to 97%.

Regarding `O=C(Nc1ccc(OCc2ccccc2)cc1C(=O)O)c1ccc2c(c1)OCCO2` [H-800], the inhibition at 20 µM in the experiment with SARS-CoV-2 [2] is 91%.

Regarding `COC(=O)c1cc(N)cc(NC(=O)CN(c2ccccc2)c2ccccc2)c1` [H-816], the inhibition at 20 µM in the experiment on SARS-CoV-2 [2] is 63%.

In the case of `Nc1cc(NC(=O)CN(c2ccccc2)c2ccccc2)cc(C(=O)O)c1` [H-817], the inhibition at 20 µM in the experiment with SARS-CoV-2 [2] turned out to be 61%.

Regarding `O=C(CN(c1ccccc1)c1ccccc1)Nc1cc(NC(=O)c2ccc3ccccc3c2)cc(C(=O)O)c1` [H-819], the inhibition at 20 µM in the experiment with SARS-CoV-2 [2] was 95%.

As for `O=C(CN(c1ccccc1)c1ccccc1)Nc1cc(NC(=O)c2ccc3ccccc3n2)cc(C(=O)O)c1` [H-821], in the experiment with SARS-CoV-2 [2], the inhibition at 20 µM came out at 95%.

Consider `COC(=O)c1cc(OCc2ccncc2)ccc1NC(=O)c1cccnc1` [H-832], for which the inhibition at 20 µM with SARS-CoV-2 [2] is 65%.

In the case of `O=C(Cn1c2ccccc2c2ccccc21)Nc1ccc(OCc2ccccc2)cc1C(=O)O` [H-835], the inhibition at 20 µM with SARS-CoV-2 [2] was 99%.

On to `O=C(Cc1cccc2ccccc12)Nc1ccc(OCc2ccccc2)cc1C(=O)O` [H-839], for which, in the experiment with SARS-CoV-2 [2], the inhibition at 20 µM was 83%.

As for `COC(=O)[C@@H](Cc1ccc2ccccc2c1)NC(=O)c1ccc(CNC(=O)OC(C)(C)C)cc1` [H-848], the inhibition at 20 µM in the experiment with SARS-CoV-2 [2] was 53%.

Regarding `CC(C)(C)OC(=O)NCc1ccc(C(=O)N[C@H](Cc2ccc3ccccc3c2)C(=O)O)cc1` [H-849], in the experiment with SARS-CoV-2 [2], the inhibition at 20 µM was 50%.

Regarding `NCc1ccc(C(=O)N[C@H](Cc2ccc3ccccc3c2)C(=O)O)cc1` [H-851], the inhibition at 20 µM in the experiment on SARS-CoV-2 [2] was determined as 59%.

Consider `O=C(O)[C@@H](Cc1ccc2ccccc2c1)NC(=O)n1c2ccccc2c2ccccc21` [H-853], for which the inhibition at 20 µM in the experiment on SARS-CoV-2 [2] was 99%.

For `COC(=O)c1cc(NC(=O)CC2c3ccccc3-c3ccccc32)cc(NC(=O)c2ccc3ccccc3c2)c1` [H-857], in the experiment with SARS-CoV-2 [2], the inhibition at 20 µM is 55%.

Take `COC(=O)c1cc(NC(=O)CC2c3ccccc3-c3ccccc32)cc(NC(=O)c2ccc3c(c2)OCCO3)c1` [H-859]: the inhibition at 20 µM in the experiment with SARS-CoV-2 [2] stood at 89%.

For the compound `COC(=O)c1cc(NC(=O)c2ccc(CN)cc2)cc(NC(=O)n2c3ccccc3c3ccccc32)c1` [H-870], in the experiment on SARS-CoV-2 [2], the inhibition at 20 µM turned out to be 97%.

For `NCc1ccc(C(=O)Nc2cc(NC(=O)n3c4ccccc4c4ccccc43)cc(C(=O)O)c2)cc1` [H-871], the inhibition at 20 µM with SARS-CoV-2 [2] worked out at 61%.

Regarding `COC(=O)c1cc(NC(=O)OC(C)(C)C)cc(NC(=O)n2ccc3ccccc32)c1` [H-872], the inhibition at 20 µM with SARS-CoV-2 [2] turned out to be 78%.

On to `CC(C)(C)OC(=O)Nc1cc(NC(=O)n2ccc3ccccc32)cc(C(=O)O)c1` [H-873], for which, in the experiment with SARS-CoV-2 [2], the inhibition at 20 µM turned out to be 67%.

`O=C(O)c1cc(NC(=O)c2ccc3c(c2)OCCO3)cc(NC(=O)n2ccc3ccccc32)c1` [H-876]: the inhibition at 20 µM in the experiment on SARS-CoV-2 [2] came out at 69%.

Take `O=C(O)c1cc(NC(=O)c2ccc3ccccc3c2)cc(NC(=O)n2ccc3ccccc32)c1` [H-878]: the inhibition at 20 µM in the experiment with SARS-CoV-2 [2] is 56%.

Take `COC(=O)c1cc(NC(=O)c2ccc(CN)cc2)cc(NC(=O)n2ccc3ccccc32)c1` [H-881]: in the experiment on SARS-CoV-2 [2], the inhibition at 20 µM came out at 88%.

For `COC(=O)c1cc(NC(=O)c2ccc(CN(C)C)cc2)cc(NC(=O)n2c3ccccc3c3ccccc32)c1` [H-890], the inhibition at 20 µM in the experiment with SARS-CoV-2 [2] is 54%.

`S=C(SC(=S)N1CCCCC1)N1CCCCC1` [dipentamethylenethiuram monosulfide]: the “replication of feline coronavirus (FCoV)” value in experiment [6] was “inhibited”.
